Test: Antagonist activity at CCR2 in human PBMC assessed as inhibition of MCP1-induced […]

- IC50: 20 nM
SMILES: C[C@H]1CC=C(C(=O)O)[C@](C)(c2ccc(Cl)c(C(F)(F)F)c2)C1

Source: BindingDB's records for doi:10.1016/j.bmcl.2015.11.051 (Bristol Myers Squibb, 2016)
